According to PMC11358092, “Caspofungin enhances the potency of rifampin against Gram-negative bacteria” (Frontiers in Microbiology, 2024):
Where a name gives a salt, the structure may show the parent alone.

Tested on: E. coli MG1655
Assay: High-throughput screening of FDA-approved drug library for antibiotic adjuvants (growth inhibition, OD600)
Type: cell-based, Escherichia coli
Details: library drug alone, LB medium, 96-well, 8 h static culture at 37°C, relative to PMBN (positive) and DMSO (negative) controls, %, table head prints no unit
Method: To screen for antibiotic adjuvants against GNB, […] library drugs or polymyxin B nonapeptide (PMBN, positive control) or dimethyl sulfoxide (DMSO, negative control). After 8 h of static culture at 37°C, the optical density at 600 nm (OD600) was measured using a microplate reader. Percentage inhibition was calculated as (ODN – ODX)/(ODN – ODP) × 100%, where ODX is the OD600 value for a test treated with drug X, and ODP and ODN are the OD600 values for the positive and negative control, respectively.

| SMILES | Growth inhibition, Compound [%] |
| --- | --- |
| [H]/N=C(/N)N[C@H]1[C@H](O)[C@@H](O)[C@H](O[C@@H]2O[C@@H](C)[C@](O)(C=O)[C@H]2O[C@@H]2O[C@@H](CO)[C@H](O)[C@@H](O)[C@@H]2NC)[C@@H](N/C(N)=N\[H])[C@@H]1O [Streptomycin sulfate] | 109 |
| CO[C@@]1(NC(=O)C2SC(=C(C(N)=O)C(=O)O)S2)C(=O)N2C(C(=O)O)=C(CSc3nnnn3C)CS[C@@H]21 (some centres unmarked) [Cefotetan] | 97 |
| CN(C)[C@@H]1C(O)=C(C(N)=O)C(=O)[C@@]2(O)C(O)=C3C(=O)c4c(O)ccc(Cl)c4[C@@](C)(O)[C@H]3C[C@@H]12 [Chlortetracycline hydrochloride] | 111 |
| Cc1cc(CC(C)CC(C)(C)C)n(O)c(=O)c1.NCCO (centres unmarked) [Piroctone olamine] | 54 |
| CC1(C)S[C@@H]2[C@H](NC(=O)[C@H](N)c3ccc(O)cc3)C(=O)N2[C@H]1C(=O)[O-].[Na+] [Amoxicillin Sodium] | 98 |
| [H]/N=C(/NCCCCC)N/N=C/c1c[nH]c2ccc(OC)cc12 [Tegaserod maleate] | 85 |
| CC1CCc2cc(F)cc3c(=O)c(C(=O)O)cn1c23 (centres unmarked) [Flumequine] | 108 |
| C[C@@H](O)[C@H]1C(=O)N2C(C(=O)O)=C(SCCN=CN)C[C@H]12 [Imipenem monohydrate] | 109 |
| CS(=O)(=O)O.C[C@H]1COc2c(C3(N)CC3)c(F)cc3c(=O)c(C(=O)O)cn1c23 [Pazufloxacin Mesylate] | 109 |
| Cc1cn([C@H]2C[C@H](F)[C@@H](CO)O2)c(=O)[nH]c1=O [3'-Deoxy-3'-fluorothymidine] | 70 |
| COC(=O)N/N=C/c1c[n+]([O-])c2ccccc2[n+]1[O-] [Carbadox] | 110 |
| CCn1cc(C(=O)O)c(=O)c2cc(F)c(N3CCNCC3)nc21 [Enoxacin] | 109 |
| CN1CCN(c2c(F)cc3c(=O)c(C(=O)O)cn4c3c2OCN4C)CC1 [Marbofloxacin] | 108 |
| CC[C@H]1OC(=O)[C@H](C)[C@@H](O[C@H]2C[C@@](C)(OC)[C@@H](O)[C@H](C)O2)[C@H](C)[C@@H](O[C@@H]2O[C@H](C)C[C@H](N(C)C)[C@H]2O)[C@](C)(O)C[C@@H](C)CN(C)[C@H](C)[C@@H](O)[C@]1(C)O [Azithromycin] | 109 |
| NC[C@H]1O[C@H](O[C@H]2[C@H](O[C@@H]3O[C@H](CO)[C@@H](O)[C@H]3O)[C@@H](O)[C@H](N)C[C@@H]2N)[C@H](N)[C@@H](O)[C@@H]1O.O=S(=O)(O)O [Ribostamycin sulfate] | 110 |
| CO[C@H]1/C=C/O[C@@]2(C)Oc3c(C)c(O)c4c(c3C2=O)C2=NC3(CCN(CC(C)C)CC3)NC2=C(NC(=O)/C(C)=C\C=C\[C@H](C)[C@H](O)[C@@H](C)[C@@H](O)[C@@H](C)[C@H](OC(C)=O)[C@@H]1C)C4=O [Rifabutin] | 94 |
| Cc1cc(O)c(C(=O)N[C@@H](C(=O)N[C@@H]2C(=O)N3C(C(=O)O)=C(CSc4nnnn4C)CS[C@H]23)c2ccc(O)cc2)cn1 [Cefpiramide acid] | 97 |
| Nc1ncn([C@@H]2O[C@H](CO)[C@@H](O)[C@H]2O)c(=O)n1 [5-Azacytidine] | 43 |
| O=[N+]([O-])C(Br)(CO)CO [Bronopol] | 100 |
| COc1ccc(Cc2cnc(N)nc2N)cc1OC [Diaveridine] | 107 |
| C=C[C@]1(C)C[C@@H](OC(=O)CS[C@@H]2C[C@H]3CC[C@@H](C2)N3C)[C@]2(C)[C@H](C)CC[C@]3(CCC(=O)[C@H]32)[C@@H](C)[C@@H]1O [Retapamulin] | 97 |
| NCC[C@H](O)C(=O)N[C@@H]1C[C@H](N)[C@@H](O[C@H]2O[C@H](CN)[C@@H](O)[C@H](O)[C@H]2O)[C@H](O)[C@H]1O[C@H]1O[C@H](CO)[C@@H](O)[C@H](N)[C@H]1O.O=S(=O)(O)O.O=S(=O)(O)O [Amikacin Sulfate Salt] | 107 |
| Nc1nc(/C(=C/CC(=O)O)C(=O)N[C@@H]2C(=O)N3C(C(=O)O)=CCS[C@H]23)cs1.O.O [Ceftibuten dihydrate] | 84 |
| CCn1cc(C(=O)O)c(=O)c2cc(F)c(N3CCNC(C)C3)c(F)c21 (centres unmarked) [Lomefloxacin] | 99 |
| CCN1CCN(C(=O)N[C@@H](C(=O)N[C@@H]2C(=O)N3C(C(=O)O)=C(CSc4nnnn4C)CS[C@H]23)c2ccc(O)cc2)C(=O)C1=O [Cefoperazone] | 100 |

| SMILES | Growth inhibition, Compound [%] |
| --- | --- |
| C[C@@H]1O[C@@H]1P(=O)(O)O [Fosfomycin Disodium] | 102 |
| O=C(N/N=C/c1ccc([N+](=O)[O-])o1)c1ccc(O)cc1 [Nifuroxazide] | 102 |
| COc1c(N2C[C@@H]3CCCN[C@@H]3C2)c(F)cc2c(=O)c(C(=O)O)cn(C3CC3)c12 [Moxifloxacin] | 101 |
| CO/N=C(\C(=O)N[C@@H]1C(=O)N2C(C(=O)O)=C(COC(C)=O)CS[C@H]12)c1csc(N)n1 [Cefotaxime sodium] | 99 |
| CO[C@H]1/C=C/O[C@@]2(C)Oc3c(C)c(O)c4c([O-])c(cc(O)c4c3C2=O)NC(=O)/C(C)=C\C=C\[C@H](C)[C@H](O)[C@@H](C)[C@@H](O)[C@@H](C)[C@H](OC(C)=O)[C@@H]1C.[Na+] [Rifamycin sodium salt] | 25 |
| NC[C@H]1O[C@H](O[C@H]2[C@H](O)[C@@H](O[C@H]3O[C@H](CO)[C@@H](O)[C@H](N)[C@H]3O)[C@H](N)C[C@@H]2N)[C@H](N)C[C@@H]1O [Tobramycin] | 107 |
| CO[C@H]1/C=C/O[C@@]2(C)Oc3c(C)c(O)c4c(O)c(c(/C=N/N5CCN(C6CCCC6)CC5)c(O)c4c3C2=O)NC(=O)/C(C)=C\C=C\[C@H](C)[C@H](O)[C@@H](C)[C@@H](O)[C@@H](C)[C@H](OC(C)=O)[C@@H]1C [Rifapentine] | 99 |
| CCN[C@@H]1C[C@H](N)[C@@H](O[C@H]2OC(CN)=CC[C@H]2N)[C@H](O)[C@H]1O[C@H]1OC[C@](C)(O)[C@H](NC)[C@H]1O.CCN[C@@H]1C[C@H](N)[C@@H](O[C@H]2OC(CN)=CC[C@H]2N)[C@H](O)[C@H]1O[C@H]1OC[C@](C)(O)[C@H](NC)[C@H]1O.O=S(=O)(O)O.O=S(=O)(O)O.O=S(=O)(O)O.O=S(=O)(O)O.O=S(=O)(O)O [Netilmicin sulfate] | 109 |
| Cc1ccc(S(=O)(=O)O)cc1.NC1CCN(c2nc3c(cc2F)c(=O)c(C(=O)O)cn3-c2ccc(F)cc2F)C1.O (centres unmarked) [Tosufloxacin p-Toluenesulfonate Hydrate] | 99 |
| NC[C@H]1O[C@H](O[C@H]2[C@H](O)[C@@H](O[C@H]3O[C@H](CO)[C@@H](O)[C@H](N)[C@H]3O)[C@H](N)C[C@@H]2N)[C@H](N)[C@@H](O)[C@@H]1O [Bekanamycin] | 106 |
| CO/N=C(\C(=O)N[C@@H]1C(=O)N2C(C(=O)O)=C(CSC(=O)c3ccco3)CS[C@H]12)c1csc(N)n1 [Sodium ceftiofur] | 109 |
| CC(=O)OCC1=C(C(=O)O)N2C(=O)[C@@H](NC(=O)Cc3cccs3)[C@H]2SC1 [Cephalothin sodium] | 79 |
| CN(C)[C@@H]1C(O)=C(C(N)=O)C(=O)[C@@]2(O)C(O)=C3C(=O)c4c(O)cccc4[C@@](C)(O)[C@H]3[C@H](O)[C@@H]12 [Oxytetracycline Dihydrate] | 101 |
| [O-][n+]1ccccc1SSc1cccc[n+]1[O-] [Dipyrithione] | 104 |
| O=C1CN(/N=C/c2ccc([N+](=O)[O-])o2)C(=O)N1 [Nitrofurantoin] | 98 |
| O=C(N[C@H](CO)[C@H](O)c1ccc([N+](=O)[O-])cc1)C(Cl)Cl [Chloramphenicol] | 109 |
| CCn1nc(C(=O)O)c(=O)c2cc3c(cc21)OCO3 [Cinoxacin] | 88 |
| CCn1cc(C(=O)[O-])c(=O)c2ccc(C)nc21.[Na+] [Nalidixic acid sodium salt] | 63 |
| Oc1c(I)cc(I)c2cccnc12 [Iodoquinol] | 70 |
| CC(OC(=O)OC1CCCCC1)OC(=O)C1=C(CSc2nnnn2CCN(C)C)CS[C@@H]2[C@H](NC(=O)Cc3csc(N)n3)C(=O)N12.Cl.Cl (some centres unmarked) [Cefotiam Hexetil Hydrochloride] | 87 |
| Cc1cn([C@H]2C[C@H](N=[N+]=[N-])[C@@H](CO)O2)c(=O)[nH]c1=O [Zidovudine] | 95 |
| CO/N=C(\C(=O)N[C@@H]1C(=O)N2C(C(=O)O)=C(COC(N)=O)CS[C@H]12)c1ccco1 [Cefuroxime sodium] | 95 |
| O=C(Nc1ccc(Cl)cc1)c1cc(Br)ccc1O [Salifungin] | 67 |
| C=C[C@]1(C)C[C@@H](OC(=O)CS[C@@H]2CC[C@@H](N)C[C@H]2O)C2(C)[C@H](C)CCC3(CCC(=O)[C@H]32)[C@@H](C)[C@@H]1O.CC(=O)O (some centres unmarked) [Lefamulin acetate] | 98 |
| CCN1CCN(c2cc3c(cc2F)c(=O)c(C(=O)O)cn3C2CC2)CC1 [Enrofloxacin] | 95 |
